The subject of one series is M21 cells. Particulars: 20 ug/ml; 0, 5, and 10 Gy; cited from earlier work.
For a further series, the system named is SF763 glioblastoma cells. Particulars: 85 μM, 16 hours at 37° C., cited from earlier work.
Series [1] relates to chick chorioallantoic membrane (CAM) blood vessel branching. In words: Chorioallantoic membrane (CAM) model of angiogenesis. It is filed as in vivo. The settings on record: for Mean Branch points: n = 8. As for the experimental part: In vivo neovascularization was examined by methods described previously. 9-12 Ten-day-old chick embryos were purchased from SPAFAS (Preston, Conn.) and incubated at 37° C. with 55% relative humidity. A hypodermic needle was used to make a small hole in the shell concealing the air sac, and a second hole was made on the broad side of the egg, directly over an avascular portion of the embryonic membrane that was identified by candling. A false air sac was created beneath the second hole by the application of negative pressure at the first hole, causing the CAM to separate from the shell. A window approximately 1.0 cm^2 was cut in the shell over the dropped CAM with a small-crafts grinding wheel (Dremel, division of Emerson Electric Co.), allowing direct access to the underlying CAM. […] Sterile disks of No. 1 filter paper (Whatman International) were pretreated with 3 mg/mL cortisone acetate and 1 mmol/L PTU and air dried under sterile conditions. Thyroid hormone, hormone analogs, FGF2 or control solvents, and inhibitors were then applied to the disks and the disks allowed to dry. The disks were then suspended in PBS and placed on growing CAMs. […] At 24 hours, the MAPK cascade inhibitor PD 98059 was also added to CAMs topically by means of the filter disks.
After incubation at 37° C. with 55% relative humidity for 3 days, the CAM tissue directly beneath each filter disk was resected from control and treated CAM samples. Tissues were washed 3× with PBS, placed in 35-mm Petri dishes (Nalge Nunc), and examined under an SV6 stereomicroscope (Zeiss) at X50 magnification. Digital images of CAM sections exposed to filters were collected using a 3-charge-coupled device color video camera system (Toshiba) and analyzed with Image-Pro software (Media Cybernetics). The number of vessel branch points contained in a circular region equal to the area of each filter disk were counted. One image was counted in each CAM preparation, and findings from 8 to 10 CAM preparations were analyzed for each treatment condition (thyroid hormone or analogs, FGF2, FGF2 antibody, PD 98059). In addition, each experiment was performed 3 times. The resulting angiogenesis index is the mean±SEM of new branch points.

For another series, the system named is ECV304 endothelial cells. In words: FGF2 release from ECV304 endothelial cells (ELISA). It counts as cell-based. The procedure: ECV304 endothelial cells were cultured in M199 medium supplemented with 10% fetal bovine serum. […] After 72 hours, the supernatants were harvested and assays for FGF performed without dilution using a commercial ELISA system (R&D Systems) (See Davis et al., Circ Res 94:1500-1506 (2004)).
A general note: ELISA stands for enzyme-linked immunosorbent assay.

The next series has as its system glioblastoma (GBM). Particulars: mild hypothyroidism induced by PTU; cited from earlier work.
For series [2], the system named is Morris 7800 hepatoma neoplasms. Particulars: PTU 0.1%; cited from earlier work.
The subject of series [3] is transplantable liver tumor. The settings on record: cited from earlier work.
In series [4] the test system is matrigel plug angiogenesis. Nature of the series: Mouse matrigel model of angiogenesis (plug hemoglobin). It counts as in vivo, mice (C57BL/6NCr). As for the experimental part:
Normal male mice (C57BL/6NCr) 6-8 weeks of age and weighing ˜20 g were purchased from Taconic farm. Animals were housed 4 per cage, in controlled conditions of temperature (20-24° C.); humidity (60-70%) and 12 hrs. light/dark cycle provided with food and water ad libitum. […] Aliquots of matrigel were placed into cold polypropylene tubes to prevent the matrigel from solidifying and the angiogenesis promoter added to matrigel with or without agonist. Mice were treated daily. Matrigel was subcutaneously injected as triple injection per animal at 100 μL/animal. At day 14 post plug implant all animals were killed in CO2 chamber and matrigel plugs were collected. Plug hemoglobin content was analyzed from three implants/mice (n=6 per group) to measure angiogenesis.
The matrigel plugs dissected from the mice were carefully stripped of any remaining peritoneum. The plugs were placed into 0.5 mL tube of ddH2O and homogenized for 5-10 min. […] Absorbance was read with a Microplate Manager ELISA reader at 540 nm. […] Hemoglobin concentration is a reflection of the number of blood vessels in the plugs.

The next series has as its system ERK1/2. Nature of the series: MAPK activation in ECV304 cells (nuclear phosphorylated ERK1/2 immunoblot). It counts as cell-based. The settings on record: PD 98059 30 μmol/L or CGP41251 100 nmol/L, 30 minutes before T4. As for the experimental part: ECV304 endothelial cells were cultured in M199 medium with 0.25% hormone-depleted serum 13 for 2 days. […] Nuclear fractions were pre-pared from all samples by the method reported previously (see Li et al., Carcinogenesis 29:62-69 (2008)), the proteins separated by polyacrylamide gel electrophoresis, and transferred to membranes for immunoblotting with antibody to phosphorylated ERK 1/2.
(In general: A western blot detects proteins with antibodies after separation by electrophoresis.)

Setting [5] is: 10 μg/matrigel plug, day 14, n = 6-7.
Setting [6] is: FGF (1.25 μg/ml) + Tetrac or analog at 10 μg/plug.
[7] abbreviates: FGF 100 ng + Tetrac or analog 10 μg/plug.
Where [8] appears, read: FGF 100 ng + Tetrac or analog 10 μg/plug, n = 7-14.

Values joined by “and” are separate entries in the source; they are usually repeats but may differ in a detail not shown here. Equal entries are not always repeated.

Turning to “CNTO 95: human anti-αv integrin monoclonal antibody”, the “increase in sensitivity (in vitro apoptosis)” value in the series with M21 cells is 2 fold.

`CC(C)[Si](OC(=O)Cc1cc(I)c(Oc2cc(I)c(OCC3CO3)c(I)c2)c(I)c1)(C(C)C)C(C)C` (stereo not shown) returned a melting point of 120 °C.

In turn, `CC(C)[Si](OC(=O)C(Cc1cc(I)c(Oc2cc(I)c(OCC3CO3)c(I)c2)c(I)c1)NC(=O)OC(C)(C)C)(C(C)C)C(C)C` (stereo not shown) (hydrate or solvate) had a melting point of 109 °C.

With `CC(C)[C@H]1C(=O)N[C@@H](CCCN=C(N)N)C(=O)NCC(=O)N[C@@H](CC(=O)O)C(=O)N[C@H](Cc2ccccc2)C(=O)N1C` [EMD121974], the “increase of α” value with SF763 glioblastoma cells is 4.4 fold. For the same molecule, the “α component in the LQ survival equation” value in the series on SF763 glioblastoma cells (from approximately 0.04) was 0.18 Gy^−1.

As for `N[C@@H](Cc1cc(I)c(Oc2ccc(O)c(I)c2)c(I)c1)C(=O)O` [Compound T3, 3,5,3′-triiodo-L-thyronine], in series [1] (10^−7-10^−9M), the “generation of new blood vessels from existing vessels promoted” value is “two-to three-fold”. Also, the “FGF2 (pg/mL/10^6 cells)” value in the series on ECV304 endothelial cells (T3 0.01 μmol/L, 3 days) is reported as 98.8 ± 0.5 pg/mL/10^6 cells.

Molecule `O=C(Cc1cc(I)c(Oc2cc(I)c(OCCCl)c(I)c2)c(I)c1)NC1CCCCC1` [Tetrac analog 15, 2-(4-(4-(2-chloroethoxy)-3,5-diiodophenoxy)-3,5-diiodophenyl)-N-cyclohexylacetamide] gave a melting point of 263 °C.

For the molecule `O=C(Cc1cc(I)c(Oc2cc(I)c(OCC3CO3)c(I)c2)c(I)c1)OCC1CO1` (stereo not shown) [Tetrac analog 8, Oxiran-2-ylmethyl-2-(4-(3,5-diiodo-4-(oxiran-2-ylmethoxy)phenoxy)-3,5-diiodophenyl)acetate], the melting point is 116 °C.

Turning to `CCCc1cc(=O)[nH]c(=S)[nH]1` [PTU, 6-N-propyl-2-thiouracil], the “improvement of duration of survival” value in the series on glioblastoma (GBM) is recorded as 3 fold. In [2], the increase in survival entry is reported as “approximately 1.3 fold”. In addition, the “time needed to grow from approximately 270 mm^3 to 900 mm^3” value in series [3] (10 Gy of x-rays plus 0.05% PTU, control 6.2, x-rays alone 11.2) is given as 17.8 days. Moreover, the “tumor growth rate versus control” value in [3] (PTU alone) is listed as “no difference in growth rate”.

`CNC(Cc1cc(I)c(Oc2cc(I)c(O)c(I)c2)c(I)c1)C(=O)[O-].O.O.[K+]` (stereo not shown) [T4 analog 10, Potassium 3-[4-(4-hydroxy-3,5-diiodophenoxy)-3,5-diiodophenyl]-2-(methylamino)propanoate dihydrate]: the “Mean % of stimulation (comparing to PBS)” value in [1] (0.1 μM) was determined as 43.8 ± 6.5%. The “Mean Branch points” value in series [1] (0.1 μM, mean ± SEM) is on record as 105 ± 7. Moreover, in series [4] (setting [5]), the “Hemoglobin (mg/mL) ± SEM” value is reported as 0.8 ± 0.2 mg/mL. Moreover, the “Mean stimulation of angiogenesis (%)” value in series [4] (10 μg/matrigel plug, dihydrate) was 87% and 87 ± 33%.

For the molecule `CC(C)[Si](OC(=O)C(Cc1cc(I)c(Oc2cc(I)c(O)c(I)c2)c(I)c1)NC(=O)OC(C)(C)C)(C(C)C)C(C)C` (stereo not shown) [T4 analog 13, Triisopropylsilyl-2-(tert-butoxycarbonylamino)-3-(4-(4-hydroxy-3,5-diiodophenoxy)-3,5-diiodophenyl)propanoate], in series [1] (1 μM, mean ± SEM), the “Mean Branch points” value turned out to be 76 ± 7. For the same molecule, in series [1] (setting [6]), the “Mean % Inhibition” value came to 44 ± 13% and the “Mean Branch points” value was found to be 105 ± 7. Besides, the change in vivo at 1 µM in series [1] (Gallus gallus, topical, 1 μM, read-out: Mean % of stimulation (comparing to PBS)) came to 4.1 ± 6.5%. Further, the “Mean stimulation of angiogenesis (%)” value in [4] (10 μg/matrigel plug) turned out to be 0 ± 17%. Moreover, the “Hemoglobin (mg/mL) ± SEM” value in [4] (setting [5]) is recorded as 0.3 ± 0.1 mg/mL.

As to `O=C(Cc1cc(I)c(Oc2cc(I)c(OCC3CO3)c(I)c2)c(I)c1)NC1CCCCC1` (stereo not shown) [Tetrac analog 6, N-cyclohexyl-2-(4-(3,5-diiodo-4-(oxiran-2-ylmethoxy)phenoxy)-3,5-diiodophenyl)acetamide], the melting point is 242 °C. The “Mean inhibition of angiogenesis (%)” value in [4] (setting [7]) came out at 80 ± 16%. The “Hemoglobin (mg/mL) ± SEM” value in series [4] (setting [8]) was determined as 0.7 ± 0.1 mg/mL.

Turning to `COc1cccc(-c2cc(=O)c3ccccc3o2)c1N` [PD 98059], the “effect on T3 + T4 stimulated blood vessel branching” value in [1] (3 μmol/L PD 98059) is given as “completely blocked”. The “effect on FGF2 stimulation of branch formation” value in series [1] (PD 98059 with FGF2 1 μg/mL) is listed as “effectively blocked”. Moreover, the “FGF2 (pg/mL/10^6 cells)” value is listed as 28.4 ± 3.2 pg/mL/10^6 cells in the series on ECV304 endothelial cells (T3 + PD 98059 (2 μmol/L)), 21.7 ± 3.5 pg/mL/10^6 cells in the series on ECV304 endothelial cells (T3 + PD 98059 (20 μmol/L)), 26.5 ± 4.5 pg/mL/10^6 cells in the series on ECV304 endothelial cells (T4 + PD 98059 (2 μmol/L)) and 23.2 ± 4.8 pg/mL/10^6 cells with ECV304 endothelial cells (T4 + PD 98059 (20 μmol/L)). In the series on ERK1/2, the “effect on T4-induced ERK1/2 (MAPK) activation” value was “inhibited”.

For `CC(C)(C)OC(=O)NC(Cc1cc(I)c(Oc2cc(I)c(OCC3CO3)c(I)c2)c(I)c1)C(=O)OCC1CO1` (stereo not shown) (hydrate or solvate) [T4 analog 14, Oxiran-2-ylmethyl-2-(tert-butoxycarbonylamino)-3-(4-(3,5-diiodo-4-(oxiran-2-ylmethoxy)phenoxy)-3,5-diiodophenyl)propanoate], the melting point is 105 °C.

For `CO[C@@H]1[C@H](N(C)C(=O)c2ccccc2)C[C@H]2O[C@]1(C)n1c3ccccc3c3c4c(c5c6ccccc6n2c5c31)C(=O)NC4` [CGP41251], the “effect on T4-induced ERK1/2 (MAPK) activation” value in the series on ERK1/2 is on record as “blocked the effect of the hormone on MAPK activation”.

Take `CC(C)[Si](OC(=O)Cc1cc(I)c(Oc2cc(I)c(O)c(I)c2)c(I)c1)(C(C)C)C(C)C` [Tetrac analog 5, Triisopropylsilyl-2-(4-(4-hydroxy-3,5-diiodophenoxy)-3,5-diiodophenyl)acetate]: the melting point came out at 146 °C. In series [1] (setting [6]), the “Mean % Inhibition” value was 75 ± 19% and the “Mean Branch points” value is 87 ± 11. For the same molecule, in [4] (setting [7]), the “Mean inhibition of angiogenesis (%)” value is 104 ± 14%. In series [4] (setting [8]), the “Hemoglobin (mg/mL) ± SEM” value was found to be 0.2 ± 0.1 mg/mL.

By melting point is commonly meant the temperature, or range, at which the solid turns liquid.

The record behind these values is patent US9839614B2, “Nanoparticle and polymer formulations for thyroid hormone analogs, antagonists, and formulations and uses thereof” (NANOPHARMACEUTICALS LLC, priority 2009, dated 2017).
